The text below walks through data of PubChem BioAssay (NCI).

Values joined by “and” are separate entries in the source; they are usually repeats but may differ in a detail not shown here. Identical values can stand only once.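 96-well plates; 48 h exposure; 5 concentrations. Endpoints by linear interpolation between flanking doses. Not reached: highest tested concentration assigned. GI50: concentration for 50% inhibition of growth. Definition used: TGI = concentration required for complete inhibition of growth.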

Test systems include SK-MEL-5 melanoma; A498 renal; HOP-92 NSCLC; SNB-75 CNS; NCI-H23 lung; MDA-MB-435; MALME-3M melanoma; HS 578T breast; K-562 leukemia; A549 NSCLC.
Assay in all cases: growth of human tumour cells (NCI), 48 h

On to `O=C1/C(=C/c2ccc(Cl)cc2)CCC1CNc1ccc(Cl)cc1` (stereo not drawn), for which the TGI with SK-MEL-5 melanoma amounted to 22 µM; in the test on A498 renal, 54.8 µM; in the test with HOP-92 NSCLC, 50.4 µM; in the test on SNB-75 CNS it was 85.2 µM; in the test on NCI-H23 lung, 55.1 µM; in the test with MDA-MB-435, 37.6 µM. Further, the TGI with MALME-3M melanoma turned out to be 44.8 µM; in the test with HS 578T breast, 64.9 µM; in the test with K-562 leukemia it was 21.3 µM; in the test with A549 NSCLC it was 38.1 µM.
`COc1cc(C(=O)c2cnc(-c3c[nH]c4cccc(C)c34)[nH]2)cc(OC)c1OC`: the GI50 was 0.00365 µM in the test on SK-MEL-5 melanoma; 0.00176 µM with A498 renal; 0.00257 µM with SNB-75 CNS; 0.0102 µM in the test on NCI-H23 lung; 0.00222 µM in the test with MDA-MB-435; 11.4 µM with MALME-3M melanoma. The GI50 in the test on HS 578T breast was 0.00655 µM; in the test with K-562 leukemia, 0.00363 µM; in the test with A549 NSCLC it was 0.0109 µM. For the same molecule, the TGI in the test with SK-MEL-5 melanoma was 0.0221 µM and 0.0366 µM; in the test with A498 renal, 0.00774 µM; in the test with HOP-92 NSCLC it was 18.3 µM; in the test on SNB-75 CNS it was 36.8 µM; with NCI-H23 lung, greater than 100 µM; in the test on MDA-MB-435 it was 0.0051 µM. The TGI was greater than 100 µM with MALME-3M melanoma, greater than 100 µM in the test on HS 578T breast, 17.4 µM with K-562 leukemia and greater than 100 µM with A549 NSCLC.
On to `COc1ccc(-c2nsc3c2NC(=O)CC3c2ccsc2)cc1` (stereo not drawn), for which the GI50 is 0.0992 µM in the test with SK-MEL-5 melanoma; 0.171 µM with A498 renal; 0.334 µM with HOP-92 NSCLC; 0.119 µM with SNB-75 CNS; 0.375 µM with NCI-H23 lung; 0.0235 µM in the test on MDA-MB-435. In addition, the GI50 was 0.135 µM in the test with MALME-3M melanoma, 0.269 µM with HS 578T breast, 0.0469 µM in the test with K-562 leukemia and 0.211 µM with A549 NSCLC. In addition, the TGI was 2.76 µM with SK-MEL-5 melanoma; 0.808 µM with A498 renal; 81.5 µM in the test on HOP-92 NSCLC; greater than 100 µM in the test with SNB-75 CNS; 73.8 µM in the test with NCI-H23 lung; 0.0644 µM in the test with MDA-MB-435. In addition, the TGI in the test with MALME-3M melanoma was 72.9 µM; with HS 578T breast, greater than 100 µM; in the test with K-562 leukemia it was greater than 100 µM; with A549 NSCLC, greater than 100 µM.
Regarding `Cc1nc2c(C)ccc([N+](=O)[O-])c2c(NCCCN(C)C)c1C`, the TGI with SK-MEL-5 melanoma was 27.2 µM; with A498 renal it was greater than 49.6 µM; with HOP-92 NSCLC, greater than 100 µM; in the test on SNB-75 CNS, greater than 100 µM; in the test on NCI-H23 lung it was greater than 100 µM; in the test on MDA-MB-435, greater than 100 µM. For the same molecule, the TGI in the test on MALME-3M melanoma is greater than 55.3 µM; in the test with HS 578T breast, greater than 100 µM; in the test on K-562 leukemia, greater than 100 µM; in the test with A549 NSCLC, greater than 100 µM.
`O=C(/C=C/c1ccc(O)c(O)c1)N1CCN(c2ccc(Cl)cc2)CC1`: the GI50 is 2.65 µM in the test with SK-MEL-5 melanoma; 2.5 µM in the test with A498 renal; 2.42 µM with HOP-92 NSCLC; 2.93 µM with SNB-75 CNS; 5.21 µM with NCI-H23 lung; 5.93 µM with MDA-MB-435. Also, the GI50 with MALME-3M melanoma was 11.1 µM; with HS 578T breast, 8.04 µM; in the test on K-562 leukemia, 4.77 µM; in the test on A549 NSCLC, 5.7 µM. Also, the TGI came to 10.2 µM in the test with SK-MEL-5 melanoma; 16.4 µM with A498 renal; 23.4 µM with HOP-92 NSCLC; 30.2 µM with SNB-75 CNS; 32 µM in the test with NCI-H23 lung; 62.2 µM with MDA-MB-435. Also, the TGI with MALME-3M melanoma is 57.5 µM; in the test with HS 578T breast, 49.4 µM; with K-562 leukemia it was 58.7 µM; with A549 NSCLC it was 60.2 µM.
As for `[O]=[Sn]([CH]1CCCCC1)[CH]1CCCCC1`, the GI50 in the test on SK-MEL-5 melanoma was 0.259 µM; in the test on A498 renal, 0.167 µM; with HOP-92 NSCLC, 0.251 µM; with SNB-75 CNS, 0.158 µM; in the test with NCI-H23 lung it was 0.198 µM; in the test with MDA-MB-435, 0.218 µM. The GI50 with MALME-3M melanoma is 0.173 µM; in the test on HS 578T breast it was 0.266 µM; in the test with K-562 leukemia, 0.117 µM; in the test on A549 NSCLC it was 1.4 µM. The TGI was found to be 1.14 µM with SK-MEL-5 melanoma; 0.451 µM with A498 renal; 1.2 µM with HOP-92 NSCLC; 0.562 µM with SNB-75 CNS; 0.591 µM with NCI-H23 lung; 0.833 µM with MDA-MB-435. Also, the TGI in the test with MALME-3M melanoma amounted to 0.555 µM; in the test with HS 578T breast, 1.52 µM; in the test with A549 NSCLC it was 2.89 µM.
With `CCn1c(-c2nonc2N)nc2ccccc21`, the GI50 in the test with SK-MEL-5 melanoma was greater than 25 µM; in the test with A498 renal, greater than 25 µM; in the test with HOP-92 NSCLC it was 17 µM; in the test on SNB-75 CNS it was greater than 25 µM; in the test on NCI-H23 lung it was greater than 25 µM; in the test on MDA-MB-435, greater than 25 µM. The GI50 in the test on MALME-3M melanoma was greater than 25 µM; with HS 578T breast, greater than 22.3 µM; with K-562 leukemia it was greater than 25 µM; with A549 NSCLC, greater than 25 µM. In addition, the TGI in the test with SK-MEL-5 melanoma, in the test on A498 renal, in the test with HOP-92 NSCLC, in the test with SNB-75 CNS, in the test with NCI-H23 lung and in the test on MDA-MB-435 was greater than 25 µM throughout. Moreover, the TGI with MALME-3M melanoma, with HS 578T breast, in the test on K-562 leukemia and in the test with A549 NSCLC was greater than 25 µM throughout.
For the molecule `Clc1ccc2c(NCCNc3nc(N4CCOCC4)nc4ccccc34)ccnc2c1`, the GI50 in the test with SK-MEL-5 melanoma was 1.75 µM; in the test with A498 renal, 1.87 µM; in the test on HOP-92 NSCLC it was 1.43 µM; in the test on SNB-75 CNS it was 1.44 µM; with NCI-H23 lung, 4.08 µM; with MDA-MB-435, 2.34 µM. The GI50 in the test with MALME-3M melanoma was 1.97 µM; in the test with HS 578T breast it was 2.58 µM; in the test with K-562 leukemia, 0.892 µM; in the test with A549 NSCLC it was 2.96 µM. The TGI in the test on SK-MEL-5 melanoma worked out at 3.15 µM; in the test with A498 renal it was 4.62 µM; in the test with HOP-92 NSCLC, 3.2 µM; in the test with SNB-75 CNS, 2.85 µM; with NCI-H23 lung, 17.8 µM; in the test on MDA-MB-435, 5.88 µM. Besides, the TGI stood at 3.89 µM in the test with MALME-3M melanoma, 7.71 µM in the test on HS 578T breast, 13.1 µM in the test on K-562 leukemia and 10.6 µM in the test with A549 NSCLC.
